Measurements: patent US20260198495A1, “BINARY INSECTICIDE COMPOSITION AND USE THEREOF” (SHENYANG SINOCHEM AGROCHEMICALS R & D CO., LTD., priority 2022, published 2026)
In brackets after ≈: the same amount, converted by molar mass.

How the values were obtained:
Assay type in all cases: in vivo
[1] = system: Bemisia tabaci (Gennadius) nymphs; assay: Joint toxicity of I-72 + bifenthrin, Example 40, Table 40; conditions: in Gossypium hirsutum, 96 h
Description: (§1) Test target: Bemisia tabaci (Gennadius) nymphs, a sensitive strain reared indoors.
(§2) Preparation of the pesticide solution: according to different test requirements, the test samples were accurately weighed respectively with an electronic analytical balance. The technical pesticides were dissolved in acetone, and then diluted with 0.1% Tween 80 water into a series of pesticide solutions with a certain concentration gradient according to the experimental design dosage.
(§3) Experimental method: first, cotton leaves with neat and consistent Bemisia tabaci (Gennadius) nymphs were selected and made into leaf disks, with about 20 insects on each leaf disk. Then, they were evenly sprayed with the pesticide solution in the order from low dosage to high dosage according to the experimental design, with 1.5 mL for each leaf and 3 replicates for each treatment. In addition, a blank control was set up.
(§4) The treated test materials were placed in an observation room, and the temperature, humidity and illumination of the observation room could be adjusted as needed. The number of dead and live insects was investigated 96 hours later. […] Then, the co-toxicity coefficient of each ratio was calculated using the Sun Y-P method to evaluate the mixing effect (the same as in Example 1).

[2] = system: 3rd-instar larvae of Ostrinia furnacalis Guenee; assay: Joint toxicity of I-72 + lambda-cyhalothrin, Example 42, Table 42; conditions: in Zea mays, 72 h
Description: Test target: 3rd-instar larvae of Ostrinia furnacalis Guenee.
as §2
(§5) Experimental method: first, tender corn stems were selected and dipped in the prepared pesticide solution for 10 s in the order from low dosage to high dosage according to the experimental design. After natural air-drying in the shade, they were placed in a 9-cm-diameter Petri dish with filter paper, and uniform and healthy test insects were introduced, with 10 insects for each treatment and 3 replicates for each treatment. In addition, a blank control was set up.
as §4, with “72” for “96”

[3] = system: 2nd-instar larvae of Chilo suppressalis (Walker); assay: Joint toxicity of I-72 + azadirachtin, Example 36, Table 36; conditions: in Oryza sativa, 72 h
Description: Test target: 2nd-instar larvae of Chilo suppressalis (Walker). The insect source was collected from Nanchang, Jiangxi Province, and it is the 11th generation continuously cultured indoors, with a relatively high resistance level to amide pesticides such as chlorantraniliprole.
Experimental method: the spraying method was adopted. Rice stalks with the same length and thickness were selected, cut into the same length, and evenly sprayed with the pesticide solution in the order from low dosage to high dosage according to the experimental design, with 1.5 mL of the pesticide solution for each treatment. The stalks were placed in a 6-cm-diameter Petri dish with filter paper. After natural air-drying in the shade, uniform and healthy test insects were introduced, with 10 insects for each treatment and 4 replicates for each treatment. In addition, a blank control was set up. The number of dead and live insects was investigated 72 hours later. The corrected mortality rate was calculated using the Abbott's formula, and the DPS data processing software was used for statistical analysis to calculate the toxicities (LC50 values) of the single test pesticides and the mixtures under the test ratios.
(§6) The test conditions, the preparation of the pesticide solution and the evaluation method were the same as those in Example 1.

[4] = system: 2nd-instar larvae of Mythimna separata; assay: Joint toxicity of I-72 + beta-cyfluthrin, Example 41, Table 41; conditions: A = compound I-72, B = beta-cyfluthrin; corn leaf dipping; 72 hours
Description: Test target: 2nd-instar larvae of Mythimna separata.
as §2
as §5, with “first,” for “first, tender”, “leaves” for “stems”
as §4, with “72” for “96”

Pyrrhalta aenescens = assay: Joint toxicity of I-72 + fenobucarb, insect-dipping, Example 24, Table 24; conditions: 24 h
Description: Test target: Pyrrhalta aenescens, a strain reared indoors.
Experimental method: the insect-dipping method was adopted. Pyrrhalta aenescens of the same size were selected, put into an insect-dipping cage, and evenly […] the pesticide solution in the order from low dosage to high dosage according to the experimental design, with dipping for 10 s for each treatment. They were placed in a 9-cm-diameter Petri dish with filter paper. After natural air-drying in the shade, feed was added, with 3 replicates for each treatment. In addition, a blank control was set up.
The treated test materials were placed in an observation room. The total number of test insects and the number of dead insects were investigated 24 hours later. The temperature, humidity and illumination of the observation room could be adjusted as needed. The test conditions, the preparation of the pesticide solution and the evaluation method were the same as those in Example 1.

[5] = system: adult Tetranychus cinnabarinus (Boisduval); assay: Joint toxicity of I-72 + fenpropathrin, Example 39, Table 39; conditions: 72 h
Description: (§7) Test target: adult Tetranychus cinnabarinus (Boisduval), a sensitive strain reared indoors.
as §2
(§8) Experimental method: the activity of the mixture against the adult Tetranychus cinnabarinus (Boisduval) was determined by adopting the potted-seedling spraying method. First, the adult Tetranychus cinnabarinus of uniform size were transferred onto the leaves of kidney bean seedlings at the stage when the first pair of true leaves was fully expanded. After the adult mites had stabilized, the base number was counted. Then, the uniform spraying was performed with the pesticide solution in the order from low to high dose according to the experimental design, with 1.5 mL for each seedling and 3 replicates for each treatment. […]
as §4, with “needed.” for “needed. The number of dead and live insects was investigated 96 hours later.”, “effect,” for “effect (the same”, “1.” for “1).”

[6] = system: second-instar larvae of Meloidogyne incognita; assay: In vitro joint toxicity of I-72 + fluopyram, 24-well plate, Example 32, Table 32; conditions: 48 h
Description: Test target: second-instar larvae of Meloidogyne incognita, a sensitive strain reared in a greenhouse.
as §2
Experimental method: the prepared pesticide solutions were added to a 24-well plate in the order from low dosage to high dosage according to the experimental design. In each well of each treatment, 50 nematodes were placed. Each drug had 5 concentrations set, with 3 replicates. After the treatment, the 24-well plate was placed in a constant temperature incubator at 25° C. In addition, a blank control group was set up. The number of dead and live insects was investigated 48 hours later. […] Then, the co-toxicity coefficient of each ratio was calculated using the Sun Y-P method to evaluate the mixing effect (the same as in Example 1).

[7] = system: mixed aphids of Myzus persicae (Sulzer); assay: Joint toxicity of I-72 + matrine, Example 34, Table 34; conditions: in Brassica oleracea, 48 h
Description: Test subject: mixed aphids of Myzus persicae (Sulzer), a sensitive strain reared indoors.
Experimental method: the spraying method on leaves with aphids was adopted. Cabbage leaves with a certain number of Myzus persicae (Sulzer) were taken. The prepared pesticide solutions were evenly sprayed on both the front and back sides of the leaves in the order from low concentration to high concentration according to the experimental design. Then, the leaves were placed in a 6-cm-diameter Petri dish with filter paper. After natural air-drying in the shade, they were placed in the observation room. The experiment had 3 replicates set, and in addition, a blank control was set up. The number of dead and live insects was investigated 48 hours later. The corrected mortality rate was calculated using the Abbott's formula, and the DPS data processing software was used for statistical analysis to calculate the toxicities (LC50 values) of the single test pesticides and the mixtures under the test ratios.
as §6

[8] = system: adult Phyllotreta striolata (Walker); assay: Joint toxicity of I-72 + rotenone, insect dipping, Example 35, Table 35
Description: Test target: adult Phyllotreta striolata (Walker), a strain reared indoors.
Experimental method: the dipping method was adopted. Adult flea beetles of uniform size were put into an insect-dipping cage and dipped for 10 s in the order from low dosage to high dosage according to the experimental design, with 30 beetles for each treatment. The beetles were placed in a 9-cm-diameter Petri dish with filter paper, with 3 replicates for each treatment. In addition, a blank control was set up. The treated test materials were placed in an observation room, and the temperature, humidity and illumination of the observation room could be adjusted as needed.
as §6

[9] = system: adult Tetranychus cinnabarinus (Boisduval); assay: Joint toxicity of I-72 + spirodiclofen, potted-seedling spraying, Example 25, Table 25; conditions: A = compound I-72, B = spirodiclofen, 72 hours
Description: as §7, §2, §8
as §4, with “needed.” for “needed. The number of dead and live insects was investigated 96 hours later.”, “effect,” for “effect (the same”, “1.” for “1).”

[10] = system: Bemisia tabaci (Gennadius) nymphs; assay: Joint toxicity of I-72 + spiromesifen, Example 27, Table 27; conditions: A = compound I-72, B = spiromesifen; cotton leaf-disk spraying; 96 hours
Description: as §1, §2, §3, §4

[11] = system: Aphis gossypii Glover nymphs; assay: Joint toxicity of I-72 + spiropidion, Example 28, Table 28; conditions: A = compound I-72, B = spiropidion; cotton leaf spraying; 48 hours
Description: Test target: Aphis gossypii Glover nymphs, a sensitive strain reared indoors.
as §2
as §3, with “uniform” for “neat”, “Aphis gossypii” for “Bemisia tabaci (Gennadius) nymphs”, “selected,” for “selected and made into leaf disks,”, “30-40” for “20”, “leaf.” for “leaf disk.”
as §4, with “48” for “96”

[12] = system: 2nd-instar larvae of Plutella xylostella; assay: Joint toxicity of I-72 + spiropidion, Example 31, Table 31; conditions: A = compound I-72, B = spiropidion; cabbage leaf dipping; 72 hours
Description: Test target: 2nd-instar larvae of Plutella xylostella.
as §2
as §5, with “cabbage leaves” for “tender corn stems”
as §4, with “72” for “96”

[13] = system: Thrips flavus Schrank nymphs; assay: Joint toxicity of I-72 + spirotetramat, Example 26, Table 26; conditions: in Solanum melongena, 48 h
Description: Test target: Thrips flavus Schrank nymphs.
as §2
Experimental method: first, eggplant seedlings with Thrips flavus Schrank were selected, and the base number was counted. Then, uniform spraying was performed with the pesticide solution in the order from low to high doses according to the experimental design, with 2 mL for each seedling and 3 replicates for each treatment. In addition, a blank control was set up.
as §4, with “48” for “96”

[14] = system: adult Tetranychus urticae Koch; assay: Joint toxicity of I-72 + spirobudifen, Example 29, Table 29; conditions: 72 h
Description: as §2
In addition, a blank control was set up.
The treated test materials were placed in an observation room, and the temperature, humidity and illumination of the observation room could be adjusted as needed.

[15] = system: Unaspis yanonensis Kuwana nymphs; assay: whole plant or invertebrate; conditions: foliar, 120 h
Description: Test target: Unaspis yanonensis Kuwana nymphs.
as §2
Experimental method: the activity of the mixture against Unaspis yanonensis Kuwana nymphs on citrus was determined by adopting the dipping method. First, the collected citrus leaves with Unaspis yanonensis Kuwana nymphs were treated with the pesticide solution in the order from low dosage to high dosage according to the experimental design. After air-drying, the petioles were kept moist with degreased cotton, and then the leaves were placed in a Petri dish, with 3 replicates for each treatment. In addition, a blank control was set up.
The treated test materials were placed in an observation room, and the temperature, humidity and illumination of the observation room could be adjusted as needed. The number of dead and live insects was investigated 120 hours later.

## Cc1c(COC(=O)[C@@H]2[C@H](/C=C(\Cl)C(F)(F)F)C2(C)C)cccc1-c1ccccc1 (racemic) [bifenthrin]
[1]
  LC50: 62.4 µg/mL

## CC1(C)[C@H](C(=O)O[C@H](C#N)c2cccc(Oc3ccccc3)c2)[C@@H]1/C=C(\Cl)C(F)(F)F (racemic) [lambda-cyhalothrin]
[2]
  LC50: 1.83 µg/mL

## C/C=C(\C)C(=O)O[C@H]1C[C@@H](OC(C)=O)[C@@]2(C(=O)OC)CO[C@H]3[C@@H](O)[C@@](C)([C@]45O[C@@]4(C)[C@H]4C[C@@H]5O[C@@H]5OC=C[C@@]54O)[C@H]4[C@]1(CO[C@]4(O)C(=O)OC)[C@@H]32 [azadirachtin]
[3]
  LC50: 22.5 µg/mL

## CC1(C)C(C=C(Cl)Cl)C1C(=O)OC(C#N)c1ccc(F)c(Oc2ccccc2)c1 (stereo not drawn) [beta-cyfluthrin]
[4]
  LC50: 1.0438 µg/mL

## CCC(C)c1ccccc1OC(=O)NC (stereo not shown) [fenobucarb]
Pyrrhalta aenescens
  LC50: 37.2 µg/mL

## CC1(C)C(C(=O)OC(C#N)c2cccc(Oc3ccccc3)c2)C1(C)C (stereo not shown) [fenpropathrin]
[5]
  LC50: 5.52 µg/mL

## O=C(NCCc1ncc(C(F)(F)F)cc1Cl)c1ccccc1C(F)(F)F [fluopyram]
[6]
  LC50: 0.609 µg/mL

## O=C1CCC[C@@H]2[C@H]3CCCN4CCC[C@@H](CN12)[C@@H]34 [matrine]
[7]
  LC50: 3.24 µg/mL

## C=C(C)[C@H]1Cc2c(ccc3c2O[C@@H]2COc4cc(OC)c(OC)cc4[C@@H]2C3=O)O1 [rotenone]
[8]
  LC50: 19.5 µg/mL

## CCC(C)(C)C(=O)OC1=C(c2ccc(Cl)cc2Cl)C(=O)OC12CCCCC2 [spirodiclofen]
[9]
  LC50: 14.5033 µg/mL

## Cc1cc(C)c(C2=C(OC(=O)CC(C)(C)C)C3(CCCC3)OC2=O)c(C)c1 [spiromesifen]
[10]
  LC50: 10.6291 µg/mL

## CCOC(=O)OC1=C(c2c(C)cc(Cl)cc2C)C(=O)N(C)C12CCN(OC)CC2 [spiropidion]
[11]
  LC50: 4.8686 µg/mL
[12]
  LC50: 631.4873 µg/mL

## CCOC(=O)OC1=C(c2cc(C)ccc2C)C(=O)N[C@]12CC[C@@H](OC)CC2 [spirotetramat]
[13]
  LC50: 12.3 µg/mL
[14]
  LC50: 8.2 µg/mL
[15]
  LC50: 8.91 µg/mL (≈ 23.9 µM)
